# Columns and labels:
# [1] = system: NCI 60 cell panel; experiment: NCI 60 Cell One-Dose Screen; assay type: cell-based, human; details: 1.00E−5 Molar; for Growth Percent, Delta: Delta of the mean graph; for Growth Percent, Mean: Mean over the cell panel; for Growth Percent, Range: Range over the cell panel
# Method: General Description. As of early 2007 all compounds submitted to the NCI 60 Cell screen are tested initially at a single high dose (10^-5 M) in the full NCI 60 cell panel. Only compounds which satisfy pre-determined threshold inhibition criteria in a minimum number of cell lines will progress to the full 5-dose assay. The threshold inhibition criteria for progression to the 5-dose screen was selected to efficiently capture compounds with anti-proliferative activity based on careful analysis of historical DTP screening data. The threshold criteria may be updated as additional data becomes available.
# Interpretation of One-Dose Data. The One-dose data will be reported as a mean graph of the percent growth of treated cells and will be similar in appearance to mean graphs from the 5-dose assay. The number reported for the One-dose assay is growth relative to the no-drug control, and relative to the time zero number of cells. This allows detection of both growth inhibition (values between 0 and 100) and lethality (values less than 0). This is the same as for the 5-dose assay, described below. For example, a value of 100 means no growth inhibition. A value of 40 would mean 60% growth inhibition. A value of 0 means no net growth over the course of the experiment. A value of −40 would mean 40% lethality. A value of −100 means all cells are dead. Information from the One-dose mean graph is available for COMPARE analysis.
# The human tumor cell lines of the cancer screening panel are grown in RPMI 1640 medium containing 5% fetal bovine serum and 2 mM L-glutamine. For a typical screening experiment, cells are inoculated into 96 well microtiter plates in 100 μL at plating densities ranging from 5,000 to 40,000 cells/well depending on the doubling time of individual cell lines. After cell inoculation, the microtiter plates are incubated at […], 5% CO2, 95% air and 100% relative humidity for 24 h prior to addition of experimental drugs.
# After 24 h, two plates of each cell line are fixed in situ with TCA, to represent a measurement of the cell population for each cell line at the time of drug addition (Tz). Experimental drugs are solubilized in dimethyl sulfoxide at 400-fold the desired final maximum test concentration and stored frozen prior to use. At the time of drug addition, an aliquot of frozen concentrate is thawed and diluted to twice the desired final maximum test concentration with complete medium containing 50 µg/ml gentamicin. Additional four, 10-fold or ½ log serial dilutions are made to provide a total of five drug concentrations plus control. Aliquots of 100 μl of these different drug dilutions are added to the appropriate microtiter wells already containing 100 μl of medium, resulting in the required final drug concentrations.
# Following drug addition, the plates are incubated for an additional 48 h at 37° C., 5% CO2, 95% air, and 100% relative humidity. For adherent cells, the assay is terminated by the addition of cold TCA. Cells are fixed in situ by the gentle addition of 50 μl of cold 50% (w/v) TCA (final concentration, 10% TCA) and incubated for 60 minutes at 4° C. The supernatant is discarded, and the plates are washed five times with tap water and air dried. Sulforhodamine B (SRB) solution (100 μl) at 0.4% (w/v) in 1% acetic acid is added to each well, and plates are incubated for 10 minutes at room temperature. After staining, unbound dye is removed by washing five times with 1% acetic acid and the plates are air dried. Bound stain is subsequently solubilized with 10 mM trizma base, and the absorbance is read on an automated plate reader at a wavelength of 515 nm. For suspension cells, the methodology is the same except that the assay is terminated by fixing settled cells at the bottom of the wells by gently adding 50 μl of 80% TCA (final concentration, 16% TCA). […]
# [2] = In vitro metabolism, mouse liver microsomes; assay type: in vitro ADME; details: % remaining of compound after 60 min treatment with mouse liver microsomes
# Method: In vitro metabolism of NUCC-176242 and NUCC-176248 were tested using mouse liver microsomes and a mouse S9 fraction. (See FIG. 9).
# [3] = A549/ATCC (Non-Small Cell Lung Cancer)
# [4] = EKVX (Non-Small Cell Lung Cancer)
# [5] = HOP-62 (Non-Small Cell Lung Cancer)
# [6] = HOP-92 (Non-Small Cell Lung Cancer)
# [7] = MDA-MB-231/ATCC (Breast Cancer)
# [8] = NCI-H23 (Non-Small Cell Lung Cancer)
# [9] = NCI-H322M (Non-Small Cell Lung Cancer)
# [10] = NCI-H460 (Non-Small Cell Lung Cancer)
# [11] = NCI-H522 (Non-Small Cell Lung Cancer)
smiles,measurement,setting,value
Cn1nc(C(F)(F)F)cc1-c1ccc(OCc2ccc(Cl)cc2)c(-c2ccc(Cl)c(C(F)(F)F)c2)c1O [NSC: D-804955/1],Growth Percent,[1]; 786-0 (Renal Cancer),28.42%
same,Growth Percent,[1]; A498 (Renal Cancer),5.29%
same,Growth Percent,[1]; [3],12.83%
same,Growth Percent,[1]; ACHN (Renal Cancer),5.21%
same,Growth Percent,[1]; BT-549 (Breast Cancer),39.82%
same,Growth Percent,[1]; CAKI-1 (Renal Cancer),19.80%
same,Growth Percent,[1]; CCRF-CEM (Leukemia),9.89%
same,Growth Percent,[1]; COLO 205 (Colon Cancer),24.55%
same,Growth Percent,[1]; DU-145 (Prostate Cancer),19.03%
same,"Growth Percent, Delta",[1],35.96%
same,Growth Percent,[1]; [4],12.77%
same,Growth Percent,[1]; HCC-2998 (Colon Cancer),13.50%
same,Growth Percent,[1]; HCT-15 (Colon Cancer),8.53%
same,Growth Percent,[1]; HCT-116 (Colon Cancer),−0.40%
same,Growth Percent,[1]; HL-60(TB) (Leukemia),9.30%
same,Growth Percent,[1]; [5],50.48%
same,Growth Percent,[1]; [6],−22.43%
same,Growth Percent,[1]; HS 578T (Breast Cancer),22.83%
same,Growth Percent,[1]; HT29 (Colon Cancer),20.44%
same,Growth Percent,[1]; IGROV1 (Ovarian Cancer),38.95%
same,Growth Percent,[1]; KM12 (Colon Cancer),8.83%
same,Growth Percent,[1]; LOX IMVI (Melanoma),5.24%
same,Growth Percent,[1]; M14 (Melanoma),35.38%
same,Growth Percent,[1]; MALME-3M (Melanoma),12.24%
same,Growth Percent,[1]; MCF7 (Breast Cancer),4.01%
same,Growth Percent,[1]; [7],8.70%
same,Growth Percent,[1]; MDA-MB-435 (Melanoma),24.66%
same,Growth Percent,[1]; MDA-MB-468 (Breast Cancer),−18.75%
same,Growth Percent,[1]; MOLT-4 (Leukemia),12.26%
same,"Growth Percent, Mean",[1],13.53%
same,Growth Percent,[1]; [8],−6.46%
same,Growth Percent,[1]; [9],18.15%
same,Growth Percent,[1]; [10],6.25%
same,Growth Percent,[1]; [11],−13.66%
same,Growth Percent,[1]; NCI/ADR-RES (Ovarian Cancer),8.38%
same,Growth Percent,[1]; OVCAR-3 (Ovarian Cancer),1.24%
same,Growth Percent,[1]; OVCAR-4 (Ovarian Cancer),30.19%
same,Growth Percent,[1]; OVCAR-5 (Ovarian Cancer),53.43%
same,Growth Percent,[1]; OVCAR-8 (Ovarian Cancer),7.41%
same,Growth Percent,[1]; PC-3 (Prostate Cancer),3.78%
same,Growth Percent,[1]; RPMI-8226 (Leukemia),−17.88%
same,"Growth Percent, Range",[1],75.86%
same,Growth Percent,[1]; SF-268 (CNS Cancer),26.01%
same,Growth Percent,[1]; SF-295 (CNS Cancer),12.82%
same,Growth Percent,[1]; SF-539 (CNS Cancer),34.37%
same,Growth Percent,[1]; SK-MEL-2 (Melanoma),1.95%
same,Growth Percent,[1]; SK-MEL-28 (Melanoma),31.16%
same,Growth Percent,[1]; SK-OV-3 (Ovarian Cancer),20.62%
same,Growth Percent,[1]; SN12C (Renal Cancer),6.24%
same,Growth Percent,[1]; SNB-19 (CNS Cancer),19.21%
same,Growth Percent,[1]; SNB-75 (CNS Cancer),47.69%
same,Growth Percent,[1]; SR (Leukemia),25.07%
same,Growth Percent,[1]; SW-620 (Colon Cancer),13.94%
same,Growth Percent,[1]; T-47D (Breast Cancer),−0.38%
same,Growth Percent,[1]; TK-10 (Renal Cancer),0.36%
same,Growth Percent,[1]; U251 (CNS Cancer),0.82%
same,Growth Percent,[1]; UACC-62 (Melanoma),19.68%
same,Growth Percent,[1]; UACC-257 (Melanoma),2.35%
same,Growth Percent,[1]; UO-31 (Renal Cancer),−6.34%
CC(C)CCOc1ccc(-c2cc(C(F)(F)F)n[nH]2)c(O)c1-c1cncc(C#N)c1 [NSC: D-804956/1],Growth Percent,[1]; 786-0 (Renal Cancer),17.07%
same,Growth Percent,[1]; A498 (Renal Cancer),−25.54%
same,Growth Percent,[1]; [3],10.39%
same,Growth Percent,[1]; ACHN (Renal Cancer),8.84%
same,Growth Percent,[1]; BT-549 (Breast Cancer),6.56%
same,Growth Percent,[1]; CAKI-1 (Renal Cancer),9.47%
same,Growth Percent,[1]; CCRF-CEM (Leukemia),6.67%
same,Growth Percent,[1]; COLO 205 (Colon Cancer),49.05%
same,Growth Percent,[1]; DU-145 (Prostate Cancer),17.95%
same,"Growth Percent, Delta",[1],40.88%
same,Growth Percent,[1]; [4],3.52%
same,Growth Percent,[1]; HCC-2998 (Colon Cancer),16.23%
same,Growth Percent,[1]; HCT-15 (Colon Cancer),11.96%
same,Growth Percent,[1]; HCT-116 (Colon Cancer),2.41%
same,Growth Percent,[1]; HL-60(TB) (Leukemia),3.64%
same,Growth Percent,[1]; [5],5.79%
same,Growth Percent,[1]; [6],−27.95%
same,Growth Percent,[1]; HS 578T (Breast Cancer),17.96%
same,Growth Percent,[1]; HT29 (Colon Cancer),48.91%
same,Growth Percent,[1]; IGROV1 (Ovarian Cancer),46.89%
same,Growth Percent,[1]; KM12 (Colon Cancer),7.94%
same,Growth Percent,[1]; LOX IMVI (Melanoma),5.15%
same,Growth Percent,[1]; M14 (Melanoma),22.46%
same,Growth Percent,[1]; MALME-3M (Melanoma),−0.80%
same,Growth Percent,[1]; MCF7 (Breast Cancer),2.95%
same,Growth Percent,[1]; [7],1.43%
same,Growth Percent,[1]; MDA-MB-435 (Melanoma),7.91%
same,Growth Percent,[1]; MDA-MB-468 (Breast Cancer),−26.3%
same,Growth Percent,[1]; MOLT-4 (Leukemia),22.96%
same,"Growth Percent, Mean",[1],9.05%
same,Growth Percent,[1]; [8],−0.16%
same,Growth Percent,[1]; [9],12.44%
same,Growth Percent,[1]; [10],3.48%
same,Growth Percent,[1]; [11],−6.89%
same,Growth Percent,[1]; NCI/ADR-RES (Ovarian Cancer),2.45%
same,Growth Percent,[1]; OVCAR-3 (Ovarian Cancer),2.95%
same,Growth Percent,[1]; OVCAR-4 (Ovarian Cancer),20.48%
same,Growth Percent,[1]; OVCAR-5 (Ovarian Cancer),36.89%
same,Growth Percent,[1]; OVCAR-8 (Ovarian Cancer),12.48%
same,Growth Percent,[1]; PC-3 (Prostate Cancer),1.74%
same,Growth Percent,[1]; RPMI-8226 (Leukemia),−31.83%
same,"Growth Percent, Range",[1],80.88%
same,Growth Percent,[1]; SF-268 (CNS Cancer),21.93%
same,Growth Percent,[1]; SF-295 (CNS Cancer),0.83%
same,Growth Percent,[1]; SF-539 (CNS Cancer),25.17%
same,Growth Percent,[1]; SK-MEL-2 (Melanoma),−13.82%
same,Growth Percent,[1]; SK-MEL-28 (Melanoma),33.67%
same,Growth Percent,[1]; SK-OV-3 (Ovarian Cancer),−7.94%
same,Growth Percent,[1]; SN12C (Renal Cancer),3.81%
same,Growth Percent,[1]; SNB-19 (CNS Cancer),13.09%
same,Growth Percent,[1]; SNB-75 (CNS Cancer),30.14%
same,Growth Percent,[1]; SR (Leukemia),33.69%
same,Growth Percent,[1]; SW-620 (Colon Cancer),14.25%
same,Growth Percent,[1]; T-47D (Breast Cancer),2.83%
same,Growth Percent,[1]; TK-10 (Renal Cancer),11.38%
same,Growth Percent,[1]; U251 (CNS Cancer),2.85%
same,Growth Percent,[1]; UACC-62 (Melanoma),17.46%
same,Growth Percent,[1]; UACC-257 (Melanoma),−14.05%
same,Growth Percent,[1]; UO-31 (Renal Cancer),3.89%
Oc1cc(OCc2ccc(Cl)cc2)ccc1-c1n[nH]c(C(F)(F)F)c1Oc1ccccc1Cl [NUCC-0196342],MLM % at 60 min,[2],87.4%
Cn1nc(C(F)(F)F)cc1-c1ccc(OCc2ccc(Cl)cc2)c(-c2cc(C(F)(F)F)cc(C(F)(F)F)c2)c1O [NUCC-0196361],MLM % at 60 min,[2],72.9%
Oc1c(-c2cc(C(F)(F)F)[nH]n2)ccc(OCc2ccc(Cl)cc2)c1-c1ccccc1Cl [NUCC-0196363],MLM % at 60 min,[2],88.6%
